Values of other authors, collected in patent US11844783B2, “Formulations of bendamustine” (Eagle Pharmaceuticals, Inc., priority 2010, dated 2023).

Settings: liquid form

## Cn1c(CCCC(=O)O)nc2cc(N(CCCl)CCCl)ccc21 [bendamustine, Bendamustine]
  stability in water: measured in hours
